Patent US20190375766A1, “PROCESS FOR PREPARING HALOGENATED BICYCLIC SYSTEMS” (Bayer CropScience Aktiengesellschaft, priority 2016, published 2019)

Assay: log P by HPLC-MS
Format: physicochemical

Compound | chromatographic logP
Cn1cnc2cc(C(F)(F)F)ncc21 [Example 1, 3-methyl-6-(trifluoromethyl)-3H-imidazo[4,5-c]pyridine] | 1.09
Cn1c(I)nc2cc(C(F)(F)F)ncc21 [Example 2, 2-iodo-3-methyl-6-(trifluoromethyl)-3H-imidazo[4,5-c]pyridine] | 1.77
Cn1c(Br)nc2cc(C(F)(F)F)ncc21 [Example 3, 2-bromo-3-methyl-6-(trifluoromethyl)-3H-imidazo[4,5-c]pyridine] | 1.71
Cn1cnc2cc(C(F)(F)F)nnc21 [Example 4, 7-methyl-3-(trifluoromethyl)-7H-imidazo[4,5-c]pyridazine] | 0.91
Cn1c(I)nc2cc(C(F)(F)F)nnc21 [Example 5, 6-iodo-7-methyl-3-(trifluoromethyl)-7H-imidazo[4,5-c]pyridazine] | 1.66
Cn1cnc2cc(C(F)(F)F)cnc21 [Example 6, 3-methyl-6-(trifluoromethyl)-3H-imidazo[4,5-b]pyridine] | 1.44
Cn1c(I)nc2cc(C(F)(F)F)cnc21 [Example 7, 2-iodo-3-methyl-6-(trifluoromethyl)-3H-imidazo[4,5-b]pyridine] | 2.29
